Test results as given in the CheMixHub drug solubility set.

Experiment: xn = mol fraction of the nth substance listed, in the solute-free solvent

CC(C)C(=O)Nc1ccc([N+](=O)[O-])c(C(F)(F)F)c1 + C1CCOC1 + CC(C)O
solubility (g/100 g solution)
Conditions	278.15 K	283.15 K	288.15 K	293.15 K	298.15 K	303.15 K	308.15 K	313.15 K	318.15 K	323.15 K
x2 = 0.1	22.2	24.2	27	30.4	34.3	39	43.5	47.9	52	56.1
x2 = 0.2	31.7	33.5	35.9	38.8	42.4	46.1	49.8	53.3	56.9	61
x2 = 0.3	36.9	40.3	43.7	47	50.5	53.9	57.1	60.3	63.6	66.8
x2 = 0.4	40.4	43.2	46.4	50.1	53.3	56.9	60.1	63.1	65.9	68.8
x2 = 0.5	43.9	46.5	49.6	52.6	55.8	59.1	62.3	65.3	68.1	70.9
x2 = 0.6	47.4	49.7	52.6	55.8	58.7	61.9	64.7	67.6	70.2	73.3
x2 = 0.7	50.4	51.9	54.7	57.8	61.2	64.4	67.1	70	72.6	75.4
x2 = 0.8	52.5	54.5	57.4	60.7	63.7	66.4	69	71.8	74.2	77.1
x2 = 0.9	55.2	57.1	59.7	62.6	65.8	68.7	71.3	73.7	75.9	78.2

c1ccc2c(c1)CCc1ccccc1N2 + CS(C)=O + O
solubility (g/100 g solution)
Conditions	x2 = 0.02506	x2 = 0.0546	x2 = 0.08995	x2 = 0.1286	x2 = 0.1882	x2 = 0.2567	x2 = 0.3485	x2 = 0.4779	x2 = 0.665
293.15 K	0.237	2.56	6.27	6.04	5.43	5.01	4.74	5.59	6.04
298.15 K	0.323	3.31	7.85	7.49	6.85	6.32	5.77	6.8	7.23
303.15 K	0.412	4.04	9.35	8.95	8.16	7.51	6.86	8.1	8.7
308.15 K	0.544	5.06	11.4	10.8	9.87	8.98	8.2	9.64	10.2
313.15 K	0.69	6.11	13.3	12.7	11.6	10.5	9.62	11.2	11.7
318.15 K	0.878	7.39	15.7	14.9	13.7	12.4	11.2	12.8	13.4
323.15 K	1.11	8.88	18.2	17.2	15.8	14.3	13	14.6	15.1
328.15 K	1.39	10.5	21	19.9	18.1	16.5	14.9	16.5	17.1
